Source: US8378112B2, “Glycyrrhetinic acid derivative and use thereof” (INI Corporation, priority 2008, dated 2013)

Legend:
C57BL/6J mice = assay: Hippocampal glutamate concentration determination (microdialysis, LPS stimulus); type: in vivo, mouse; settings: 20 mg/kg intraperitoneal simultaneously with 10 μg/2 μl LPS stimulus; FIG. 13
Protocol: A microdialysis catheter was indwelled stereotaxically (in place) into the hippocampus of C57BL/6J mice (8 weeks of age, female, n=5 to 7). After settlement for 48 hours, the determination of the hippocampal glutamate with time was started using high-speed liquid chromatography (HPLC, HITEC-500 GAD, made by Eicom Corp. A stimulus was given by administering 10 μg/2 μl of lipopolysaccharide (LPS) through said catheter, along with an intraperitoneal injection of 20 mg/kg body weight CBX or Compound B simultaneously with the LPS stimulus administration, for a pharmacological efficacy assessment. The hippocampal glutamate concentration was quantified as a % value relative to the average value thereof from 120 minutes to 60 minutes before the stimulus was given to each individual.

mice = type: in vivo; settings: intraperitoneal injection of 200 and 1000 mg/kg body weight
[1] = tested on: Mouse cerebral cortex primary neuronal cells; assay: Cell death of neuronal cells cultured with microglia-conditioned medium (propidium iodide, TUNEL); type: cell-based; settings: microglia conditioned medium with LPS and compound at 1, 10, 100 μM; FIG. 6
Protocol: (§1) Next, Compound A and Compound B were checked as to their inhibitory effect on glutamate production in activated microglia. That is, mouse primary microglia were isolated from primary mixed glial cell cultures, prepared from neonatal C57BL/6 mice brains by the “shaking off” method on the 14th culture day or later (Suzumura, A. et al J. Neuroimmunol. 15, 263-278 1987). Mouse cerebral cortex primary neuronal cells were prepared from the cerebral cortices of C57BL/6J mice at embryonic day 17, and were plated on polyethyleneimine-coated cover glasses, and were used at culture day 10-13 (Takeuchi, H. et al. J. Biol. Chem. 280, 10444-10454, 2005.)
Using the culture system of neuronal cells utilizing a microglia conditioned medium, the neuronal cell damage by activated microglia was analyzed with time by the following methods (Takeuchi, H. et al. J. Biol. Chem. 280, 10444-10454, 2005.) Namely, 1 μg/ml lipopolysaccharide (LPS) and Compound A, Compound B, and carbenoxolone (CBX) at each concentration thereof (1 μM, 10 μM and 100 μM as the final concentrations) were added to a microglia culture (about 5×10^4 cells/well, a neuronal culture medium, (made by Sumitomo Bakelite Co., Ltd)) followed by incubating under 100% humidity and 5% CO2 for 24 hours. For a control, except for not adding Compound A or Compound B, microglia were incubated in a similar manner (LPS). […]

[2] = tested on: human superoxide dismutase 1 (SOD1) G93A mutant transgenic mouse; assay: Survival extension effect in an ALS model mouse; type: in vivo; settings: 20 mg/kg intraperitoneal 3 times a week from 6-7 weeks of age; vs PBS, p<0.0002; FIG. 7
Protocol: The assessment of drug efficacy was conducted using, as an animal model of neurodegenerative diseases, the human superoxide dismutase 1 (SOD1) G93A mutant transgenic mouse, which is widely used as a model of amyotrophic lateral sclerosis (ALS). Said transgenic mice were procured from Jackson Laboratory, USA.
(§2) Starting at 6-7-weeks of age, which is considered to be an early ALS onset period, they were intraperitoneally administered with 20 mg/kg body weight of Compound B, which is a novel gap junction inhibitor, CBX, or the same volume of physiological saline (PBS group) 3 times a week. The survival analysis was performed using the Kaplan-Meier method.

LPS-activated microglia = assay: Inhibitory effect on glutamate production by activated microglia (glutamate in neuronal medium cultured with microglia conditioned medium); type: cell-based, mouse; settings: for glutamate concentration in the neuron culture media: microglia cultured with 1 μg/ml LPS and compound at 1, 10, 100 μM for 24 hours
Protocol: as §1
Using the culture system of neuronal cells utilizing a microglia conditioned medium, the neuronal cell damage by activated microglia was analyzed with time by the following methods (Takeuchi, H. et al. J. Biol. Chem. 280, 10444-10454, 2005.) Namely, 1 μg/ml lipopolysaccharide (LPS) and Compound A, Compound B, and carbenoxolone (CBX) at each concentration thereof (1 μM, 10 μM and 100 μM as the final concentrations) were added to a microglia culture (about 5×10^4 cells/well, a neuronal culture medium, (made by Sumitomo Bakelite Co., Ltd)) followed by incubating under 100% humidity and 5% CO2 for 24 hours. For a control, except for not adding Compound A or Compound B, microglia were incubated in a similar manner (LPS).
Each of the activated microglia conditioned media, 500 μl, 24 hrs after the administration, was added to neuronal cells (5×10^4 cells/well) in a 24-well plate, and the neuronal cells were cultured at 37° C. under 100% humidity and 5% CO2. The non-activated microglia conditioned medium was also added to neuronal cells to serve as a control (NT). 24 hours after the start of culturing, the amounts of glutamate and neuronal cell death in the conditioned medium were analyzed.
Determination of glutamate was performed by colorimetry; and neuronal cell death was assessed by the dye-exclusion method with propidium iodide under a fluorescence microscope and the terminal deoxynucleotidyl transferase-mediated […] (TUNEL) staining.

[3] = tested on: human superoxide dismutase 1 (SOD1) (G93A) mutant transgenic mouse; assay: Survival extension effect in an acute-onset ALS model mouse; type: in vivo; settings: 20 mg/kg intraperitoneal 3 times a week from 7-8 weeks of age; vs PBS, p<0.0001; FIG. 8
Protocol: The assessment of drug efficacy at different Compound B concentrations was conducted using, as an animal model of neurodegenerative diseases, a human superoxide dismutase 1 (SOD1) (G93A) mutant transgenic mouse, which is widely used as an acute-onset model of amyotrophic lateral sclerosis (ALS).
as §2, with “7-8-weeks” for “6-7-weeks”, “with 5, 10, and” for “with”, “the” for “Compound B, which is a”, “inhibitor (Compound B)” for “inhibitor, CBX,”

[4] = tested on: APP/PS1 mutant double transgenic mouse; assay: Novel object exploration test in Alzheimer's disease model mouse; type: in vivo; settings: 10 and 20 mg/kg intraperitoneal 3 times a week; FIG. 10
Protocol: (§3) The assessment of drug efficacy of Compound B was conducted using, as an animal model of neurodegenerative diseases, the human amyloid precursor protein/human presenilin-1 (APP/PS1) mutant double transgenic mouse, which is widely used as an Alzheimer's disease model mouse.
(§4) Starting at 9 months of age, which is considered to be an intermediate onset period, they were intraperitoneally administered with 10 and 20 mg/kg body weight of Compound B or the same volume of physiological saline (PBS group) 3 times a week. The control group was a wild type mouse (G57BL/6J) of the same age. Behavioral analysis was performed using the following three types of behavior experiments.
(1) Novel object exploration test: After the mice were habituated for 3 days (10 minutes/day) in an acrylic experiment apparatus, they were subjected to training. The raining consisted of placing two different objects in the apparatus and they were allowed to freely explore for 10 minutes. 24 hours after the training, Retention was carried out. The Retention consisted of replacing one of the two objects which had been placed in the apparatus during the training with a novel object and allowing the mice to freely explore for 5 minutes. The times spent exploring (touching, sniffing behavior and the like) the two objects were determined respectively. […]

[5] = tested on: APP/PS1 mutant double transgenic mouse; assay: Morris water maze test in Alzheimer's disease model mouse; type: in vivo; settings: FIG. 12
Protocol: as §3, §4
(3) Morris water maze test: Spatial recognition memory was evaluated using the Morris water maze test (Mouri et al. and FASEB J. 21 2135-2148 2007; Miyamoto et al; J. Neurosci. 25, 1826-1835 2005). A 60 second trial was conducted 3 times a day to determine the swimming time (escape latency) and swimming distance (distance moved) from a different start position to a fixed platform. This was performed for seven days in row; on the eighth day, a probe test was performed with the platform removed. The Probe test involved dividing the water maze into 4 regions consisting of Target (Platform), Right, Opposite, and Left and determining the ratios of the regions in which they swam over 60 seconds. The items to be determined were determined using the SMART system (Panlab, Barcelona, Spain).

[6] = tested on: APP/PS1 mutant double transgenic mouse; assay: Fear conditioned learning test in Alzheimer's disease model mouse; type: in vivo; settings: FIG. 11
Protocol: as §3, §4
(2) Fear conditioned learning test: Associative learning was assessed using a fear conditioned learning test (Mouri et al., FASEB J. 21, 2135-2148, 2007; Nagai et al., FASEB J. 17, 50-52, and 2003). The mice were placed in a transparent acrylic cage with a stainless steel grid installed therein and were subjected to a 20 second tone stimulus (80 dB), and then further to an electric stimulus (0.6 mA). A set of this combination stimulus was repeated 4 times with 15 second intervals, thereby causing fear conditioning. A contextual dependency test and a tone stimulus dependency test were carried out 24 hours after the fear conditioning. For the former, mice were placed in the […] acrylic cage with a grid where the fear conditioning took place to determine their freezing behavior for two minutes under a context of giving no tone and no electric stimuli. For the latter, mice were placed in a black acrylic cage having wood chips on the floor thereof, to determine their freezing behavior for 1 minute when given a continuous tone stimulus. The results were expressed respectively in terms of a percentage (%) of the freezing behavior time relative to the total time for determination.

[7] = 10 and 20 mg/kg intraperitoneal 3 times a week

Row | SMILES | inhibitory effect on the rise in hippocampal glutamate (C57BL/6J mice) | deaths after acute dosing (mice) | neuronal cell death (%) [1] | extending survival, on average [2] | glutamate release inhibition (LPS-activated microglia; 100 μM, LPS-activated microglia, FIG. 5) | inhibition of glutamate release in LPS-activated microglia, comparison of compounds (LPS-activated microglia; LPS-activated microglia) | glutamate concentration in the neuron culture media (LPS-activated microglia; FIG. 5) | extending survival, on average [3] | novel object exploratory preference [4] | distance swum ([5]; 10 mg/kg, training day 1) | distance swum ([5]; 10 mg/kg, training day 5-7) | distance swum ([5]; 20 mg/kg, training day 4-7) | swimming time ([5]; 20 mg/kg, training day 4-7) | swimming time in the target region (Probe test) ([5]; Compound B administered groups, day 8 probe test) | freezing behavior time, tone stimulus dependency test ([6]; 20 mg/kg administered group) | freezing behavior time, contextual dependency test [6, 7] | freezing behavior time, tone stimulus dependency test [6, 7]
1 | CC1(C)[C@@H](OC(=O)CCC(=O)O)CC[C@]2(C)[C@H]3C(=O)C=C4[C@@H]5C[C@@](C)(C(=O)O)CC[C@]5(C)CC[C@@]4(C)[C@]3(C)CC[C@@H]12 [CBX, carbenoxolone, reference compound] | no inhibitory effect | all mice among the CBX administered group died within 24 hours | – | – | – | – | – | – | – | – | – | – | – | – | – | – | –
2 | C[n+]1cccc(C(=O)O[C@H]2CC[C@]3(C)[C@H]4C(=O)C=C5[C@@H]6C[C@@](C)(C(=O)O)CC[C@]6(C)CC[C@@]5(C)[C@]4(C)CC[C@H]3C2(C)C)c1 [Compound B] | significant inhibitory effect | – | inhibited in a concentration-dependent manner | about 14 days | comparable to that of the non-stimulated microglia | notably more effective than Compound A | fell in accordance with the concentration of these compounds | about 2 weeks | significantly greater than the PBS administered group | about the same as that of the PBS administered group | fell significantly | significant reduction | significant reduction | significantly increased | significant moderation effect | significantly moderated the observed reduction in freezing behavior time | dose-dependent increase in the freezing behavior time
3 | CC1(C)[C@@H](OC(=O)c2cccnc2)CC[C@]2(C)[C@H]3C(=O)C=C4[C@@H]5C[C@@](C)(C(=O)O)CC[C@]5(C)CC[C@@]4(C)[C@]3(C)CC[C@@H]12 [Compound A] | – | – | inhibited in a concentration-dependent manner | – | – | – | fell in accordance with the concentration of these compounds | – | – | – | – | – | – | – | – | – | –
